The source of these data is PMC5641551, “Chemical Proteomics for Target Discovery of Head-to-Tail Cyclized Mini-Proteins” (Frontiers in Chemistry, 2017).

No end group written: not given here.

The test system of one assay is EAE disease in mice. The settings on record: cited from earlier work. The text has this: 14-3-3s are ubiquitous adaptor proteins that are involved in cell signaling, cell cycle progression and apoptosis as well as protein-protein interaction and cellular transport (Aghazadeh and Papadopoulos, [2016]). The 14-3-3 family is often described as a chimera, since knockout of single isoforms may remain without or with minor phenotypic changes due to functional rescue through the recruitment of other family members. […] Many tumor suppressors or oncogenes are regulated by 14-3- ... || Meanwhile, plant-derived cyclotides are recognized for their pharmaceutical potential. […] Additionally, cyclotides are considered as promising templates for the design of stabilized, orally active peptide epitopes (Jagadish and Camarero, [2010]; Craik et al., [2012]). The cystine-knot motif is capable of tolerance to the incorporation of several amino acid long sequences without impacting its endogenous structure and stability. Using this ...

Assay [1] concerns 14-3-3 proteins / 25 kDa protein band in murine splenocyte lysates. Briefly: photo-affinity pull down, splenocyte lysate, with competitors. The format is binding, mouse. The settings on record: competitors at 100-fold molar excess versus bait [T20K,W23Bpa]kB1, in-gel digestion and proteomics. As for the experimental part: (§1) Splenocytes or Jurkat cells were lysed with 25 mM Tris-HCl pH 7.4, 40 mM KCl, 2.5 mM MgSO4 2.5 mM CaCl2, 2% (v/v) glycerol, 1 mM EDTA under repeated freeze-thaw cycles and 10 min sonification. All experiments were performed in buffer with 1x complete protease inhibitor cocktail (Hoffman-La Roche, Basel, Switzerland). Cell membranes and debris were pelleted for 30 min at 16,000 × g and the supernatant corresponds to the “soluble cell lysate.” Protein concentration was determined using a bicinchoninic acid assay kit (Thermo Scientific) and DTT (1 mM) was added to keep redox potential constant during binding experiments. Photo-affinity pull down samples were submitted to denaturing sodium dodecyl sulfate polyacrylamide gel electrophoresis (PAGE). For immunoblotting according to earlier published protocols (Gruber et al., [2007]; Bergmayr et al., [2013]) proteins were semi-dry transferred onto a nitrocellulose membrane 0.45 μM (Amersham Protran, GE Healthcare, Austria) using a Fast Semi-dry blotter (Bio-Rad) at 0.25 mA per gel for 1 h. Primary rabbit anti-GFP antibody (1:5,000) was from Invitrogen (A6455), rabbit anti-GST antibody (1:2,500) from Abcam (ab9085), and mouse anti-human calcineurin subunit A antibody (1:2,000) clone BE2.1 from eBioscience. Secondary ECL anti-mouse (NA931V) or ECL anti-rabbit (NA934VS) IgG antibodies (1:10,000) were conjugated with horse radish peroxidase (GE Healthcare). Chemo-luminescence signals were detected on an imaging system FluorChem HD2 (Alpha Innotech, CA, United States). For silver staining protein gels were treated immediately after electrophoresis with fixing solution EtOH/ddH2O/acetic acid 50/40/10% (v/v/v) for 20 min. Gels had to be washed acid free, first with 50% (v/v) EtOH for 10 min and with ddH2O for 2 h. Gels were exposed to sensitization buffer 0.025% Na2S2O3 in ddH2O for 3 min, followed by 2 min wash with ddH2O. Gels were silver loaded using a 0.15% AgNO3 solution for 45 min in the dark. The protein bands were stained in development buffer formaldehyde/Na2CO3 0.04/2% (v/w) under rigorous shaking. The reaction was quenched with 5% (v/v) acetic acid solution and the gels were stored until further processing in the stopping buffer at 4°C. Pixel quantification was carried out using ImageJ v1.47 (National Institute for Health).
Biotin-LC-LC-labeled (ThermoFisher) peptides (1–5 nmoles) with or without (non-biotinylated) competitor (20–100-fold molar excess) were incubated with Jurkat cell or murine splenocyte cell lysates (150–500 μg proteins) for 2 h at 4°C in the presence of protease inhibitors. UV-activation of photo-crosslinking moiety benzophenone was induced by irradiation at 360 nm on ice for 15 min (Stratalinker, Stratagene, CA, United States). […]

The next assay has as its system GST-tagged 14-3-3β. As to the kind of experiment: co-precipitation of GST-tagged 14-3-3β with cyclotide probe and competitors. The format is binding. The method, then: as §1
Biotin-LC-LC-labeled (ThermoFisher) peptides (1–5 nmoles) with or without ([…]) were incubated with Jurkat cell or murine splenocyte cell lysates (150–500 μg proteins) for 2 h at 4°C in the presence of protease inhibitors. UV-activation of photo-crosslinking moiety benzophenone was induced by irradiation at 360 nm on ice for 15 min (Stratalinker, Stratagene, CA, United States). […]

Assay [2] relates to 14-3-3 proteins / 25 kDa protein in Jurkat cell lysates. Briefly: photo-affinity pull down, Jurkat cell lysate, with competition. The format is binding, human. The conditions noted are these: competitor at 20-, 60- and 100-fold molar excess of biotinylated probe [T20K,W23Bpa]kB1, silver-stained gel. As for the experimental part:
Splenocytes or Jurkat cells were lysed with 25 mM Tris-HCl pH 7.4, 40 mM KCl, 2.5 mM MgSO4 2.5 mM CaCl2, 2% (v/v) glycerol, 1 mM EDTA under repeated freeze-thaw cycles and 10 min sonification. All experiments were performed in buffer with 1x complete protease inhibitor cocktail (Hoffman-La Roche, Basel, Switzerland). Cell membranes and debris were pelleted for 30 min at 16,000 × g and the supernatant corresponds to the “soluble cell lysate.” Protein concentration was determined using a bicinchoninic acid assay kit (Thermo Scientific) and DTT (1 mM) was added to keep redox potential constant during binding experiments. Photo-affinity pull down samples were submitted to denaturing sodium dodecyl sulfate polyacrylamide gel electrophoresis (PAGE). For immunoblotting according to earlier published protocols (Gruber et al., [2007]; Bergmayr et al., [2013]) proteins were semi-dry transferred onto a nitrocellulose membrane 0.45 μM (Amersham Protran, GE Healthcare, Austria) using a Fast Semi-dry blotter (Bio-Rad) at 0.25 mA per gel for 1 h. […] Chemo-luminescence signals were detected on an imaging system FluorChem HD2 (Alpha Innotech, CA, United States). […] Pixel quantification was carried out using ImageJ v1.47 (National Institute for Health). […]

Regarding “CGETCVGGTCNTPGCKCSWPVCTRNGLPV (also: bicyclic or more (positions not given here)) [[T20K]kB1, synthetic cyclotide drug candidate, Thr20 to Lys mutant of kalata B1]”, in the assay with EAE disease in mice (oral administration, ref Thell et al., 2016), the “progression of typical symptoms in mouse model of multiple sclerosis” value was “halted the progression of typical symptoms”. The “symptoms of the EAE disease in mice” value in the assay with EAE disease in mice (reported, reference not given) is “reduce the symptoms of the EAE disease in mice”. Moreover, the “competition effect for 14-3-3 proteins (order)” value in assay [1] is “competition effect in the order [T20K]kB1 < [T20K,W23Bpa]kB1 < R18”. The “binding to 14-3-3 family proteins” value in the assay on GST-tagged 14-3-3β (conclusion in words from competition co-precipitation) was “can bind to 14-3-3 family proteins”. Further, the “binding of probe [T20K,W23Bpa]kB1 to 14-3-3β in presence of competitor” value with GST-tagged 14-3-3β (immunoblot and far Western blot, 2 h at 4°C, competitors 150–500-fold molar excess) is on record as “significantly altered”. Also, the “effect of competitor on 25 kDa protein band intensity” value in assay [2] is recorded as “revealed an effect on the band intensity of a 25 kDa protein”.
